Legend:
[1] = system: pDAS1421 T0 corn; experiment: Whole plant quizalofop screening of T0 corn lineages containing AAD1 (v3) and AHAS (pDAS1421); format: in vivo; conditions: number of lineages
Procedure: Seventy-two Agrobacterium-transformed events were selected on various levels of R-haloxyfop acid and R-cyhalofop acid in vitro. Twenty-two callus samples were analyzed by Southern blot analysis for stable integration of AAD1 (v3) into the genome as described previously.
A minimum six regenerated clonal lineages per event were moved to soil in the greenhouse and screened using a track sprayer as previously described to apply 35 g ae/ha quizalofop when 2-4 new, normal leaves had emerged (see section 8.3.3). Presence of AAD1 protein on a Western blot correlated perfectly with herbicide resistance in the T0 generation regardless of which AOPP herbicide was used for selection. There is no negative impact of the second HTC gene (AHAS) on the function of the AAD1 (v3).

[2] = system: AAD1 (v3) event lines; experiment: Field tolerance of pDAB3404 T1 corn to quizalofop and 2,4-D: AAD1 (v3) events; format: in vivo; conditions: 140 g ae/ha
Source text: Two field trials were established at field stations in Hawaii and Indiana. […] The hybrid Hi-II×5XH571 is of the same parentage as the AAD1 (v3) event lines. The hybrid Croplan 585SR is a sethoxydim resistant line.
The experimental design was a split-plot with four replications. The main plot was herbicide treatment and the sub-plot was AAD1 (v3) event or comparison hybrid. Plots were one row by 3.7 meters with approximately twenty-five seeds planted in each row. For AAD1 events, seeds from a different lineage within the event were planted in each replicate.
Glufosinate at 560 g ai/ha was applied to AAD1 (v3) plots at the V2 stage to eliminate non-transformed plants. […] Treatments were applied using backpack broadcast boom equipment delivering 187 L/ha carrier volume at 130-200 kpa pressure.
Quizalofop treated plots were visually assessed for crop injury at one and three weeks after application (WAA) using a 0-100% scale, where 0 equals no injury and 100 equals complete death.

[3] = system: T4 Arabidopsis homozygous for AAD1 (v3) (line AAD1.01.315.076); experiment: Foliar-applied auxinic herbicides on homozygous T4 AAD1 (v3) Arabidopsis, % injury 14 DAT; format: in vivo, Arabidopsis thaliana; conditions: AAD1.01.315.076.T4 homozygous AAD1 plants
Summary of the method: (§1)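 Homozygous T4 AAD1 (v3) Arabidopsis (line AAD1.01.315.076) and a PAT/Cry1F transformed control were grown in pots and track-sprayed foliarly at 187 L/ha with herbicides formulated in 200 mM Hepes pH 7.5. Injury was rated 14 days after treatment, with 3-4 replicates averaged over two experiments.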

[4] = system: transformed-control line containing PAT and Cry1F; experiment: Foliar-applied auxinic herbicides on control (PAT/Cry1F, wildtype) Arabidopsis, % injury 14 DAT; format: in vivo, Arabidopsis thaliana; conditions: PatCry1f - Control
Summary of the method: as §1

[5] = system: AAD1 (v3) T1 tobacco (events 721(2)-013.010 and 721(3)-008.005); experiment: Segregating AAD1 T1 tobacco response to phenoxy auxin herbicides; format: in vivo, Nicotiana tabacum; conditions: rates below 1× field rates (560 g ae/ha); either event
Source text: Two AAD1 (v3) tobacco lines (event 721(2)-013.010 and 721(3)-008.005) were chosen from the T0 generation. The T1 seed was stratified, and sown into selection trays much like that of Arabidopsis (Example 6.4), followed by selective removal of untransformed nulls in this segregating population with 280 g ai/ha glufosinate (PAT selection). Survivors were transferred to individual 3-inch pots in the greenhouse. […] Improved consistency of response is anticipated in T1 plants not having come directly from tissue culture. These plants were compared against wildtype KY 160 tobacco. All plants were sprayed with the use of a track sprayer set at 187 L/ha. […] All applications were formulated in 200 mM Hepes buffer (pH 7.5). Each treatment was replicated 4 times. Plants were evaluated at 3 and 14 days after treatment. Plants were assigned injury rating with respect to stunting, chlorosis, and necrosis. The T1 generation is segregating, so some variable response is expected due to difference in zygosity. (Table 28).

C[C@@H](Oc1ccc(Oc2cnc3cc(Cl)ccc3n2)cc1)C(=O)O [quizalofop]
Assessment of T0 lineages resistant to 35 g ae/ha quizalofop: Resistant ([1]; event 1421[3]-036): 8 | Assessment of T0 lineages resistant to 35 g ae/ha quizalofop: Sensitive ([1]; event 1421[3]-036): 0 | Assessment of T0 lineages resistant to 35 g ae/ha quizalofop: Resistant ([1]; event 1421[4]-031): 9 | Assessment of T0 lineages resistant to 35 g ae/ha quizalofop: Sensitive ([1]; event 1421[4]-031): 0 | Assessment of T0 lineages resistant to 35 g ae/ha quizalofop: Resistant ([1]; event 1421[4]-032): 8 | Assessment of T0 lineages resistant to 35 g ae/ha quizalofop: Sensitive ([1]; event 1421[4]-032): 0 | Assessment of T0 lineages resistant to 35 g ae/ha quizalofop: Resistant ([1]; event 1421[4]-033): 12 | Assessment of T0 lineages resistant to 35 g ae/ha quizalofop: Sensitive ([1]; event 1421[4]-033): 0 | Assessment of T0 lineages resistant to 35 g ae/ha quizalofop: Resistant ([1]; event 1421[4]-034): 8 | Assessment of T0 lineages resistant to 35 g ae/ha quizalofop: Sensitive ([1]; event 1421[4]-034): 0 | Assessment of T0 lineages resistant to 35 g ae/ha quizalofop: Resistant ([1]; event 1421[4]-035): 6 | Assessment of T0 lineages resistant to 35 g ae/ha quizalofop: Sensitive ([1]; event 1421[4]-035): 0 | Assessment of T0 lineages resistant to 35 g ae/ha quizalofop: Resistant ([1]; event 1421[21]-016): 8 | Assessment of T0 lineages resistant to 35 g ae/ha quizalofop: Sensitive ([1]; event 1421[21]-016): 0 | Assessment of T0 lineages resistant to 35 g ae/ha quizalofop: Resistant ([1]; event 1421[22]-020): 8 | Assessment of T0 lineages resistant to 35 g ae/ha quizalofop: Sensitive ([1]; event 1421[22]-020): 0 | Assessment of T0 lineages resistant to 35 g ae/ha quizalofop: Resistant ([1]; event 1421[22]-022): 8 | Assessment of T0 lineages resistant to 35 g ae/ha quizalofop: Sensitive ([1]; event 1421[22]-022): 0 | Assessment of T0 lineages resistant to 35 g ae/ha quizalofop: Resistant ([1]; event 1421[22]-023): 8 | Assessment of T0 lineages resistant to 35 g ae/ha quizalofop: Sensitive ([1]; event 1421[22]-023): 0 | % Injury 3 WAA (0-100 scale) ([2]; HI, 3404.001): 25% | % Injury 3 WAA (0-100 scale) ([2]; HI, 3404.006): 0% | % Injury 3 WAA (0-100 scale) ([2]; HI, 3404.013): 0% | % Injury 3 WAA (0-100 scale) ([2]; HI, 3404.017): 0% | % Injury 3 WAA (0-100 scale) ([2]; HI, 3404.020): 0% | % Injury 3 WAA (0-100 scale) ([2]; HI, 3404.022): 0% | % Injury 3 WAA (0-100 scale) ([2]; HI, 3404.025): 0% | % Injury 3 WAA (0-100 scale) ([2]; HI, 3404.027): 0% | % Injury 3 WAA (0-100 scale) ([2]; HI, 3404.031): 0% | % Injury 3 WAA (0-100 scale) ([2]; HI, 3404.033): 0% | % Injury 3 WAA (0-100 scale) ([2]; HI, 3404.036): 0% | % Injury 3 WAA (0-100 scale) ([2]; HI, 3404.044): 0% | % Injury 3 WAA (0-100 scale) ([2]; HI, 3404.050): 0% | % Injury 3 WAA (0-100 scale) ([2]; HI, 3404.053): 0% | % Injury 3 WAA (0-100 scale) ([2]; HI, 3404.074): 0% | % Injury 3 WAA (0-100 scale) ([2]; HI, 3404.082): 0% | % Injury 3 WAA (0-100 scale) ([2]; IN, 3404.001): 25% | % Injury 3 WAA (0-100 scale) ([2]; IN, 3404.006): 0% | % Injury 3 WAA (0-100 scale) ([2]; IN, 3404.013): 0% | % Injury 3 WAA (0-100 scale) ([2]; IN, 3404.017): 0% | % Injury 3 WAA (0-100 scale) ([2]; IN, 3404.020): 0% | % Injury 3 WAA (0-100 scale) ([2]; IN, 3404.022): 0% | % Injury 3 WAA (0-100 scale) ([2]; IN, 3404.025): 0% | % Injury 3 WAA (0-100 scale) ([2]; IN, 3404.027): 0% | % Injury 3 WAA (0-100 scale) ([2]; IN, 3404.031): 0% | % Injury 3 WAA (0-100 scale) ([2]; IN, 3404.033): 0% | % Injury 3 WAA (0-100 scale) ([2]; IN, 3404.036): 0% | % Injury 3 WAA (0-100 scale) ([2]; IN, 3404.044): 0% | % Injury 3 WAA (0-100 scale) ([2]; IN, 3404.050): 0% | % Injury 3 WAA (0-100 scale) ([2]; IN, 3404.053): 0% | % Injury 3 WAA (0-100 scale) ([2]; IN, 3404.074): 0% | % Injury 3 WAA (0-100 scale) ([2]; IN, 3404.082): 0%

Nc1c(Cl)c(F)nc(OCC(=O)O)c1Cl [Fluroxypyr]
Ave % Injury 14DAT ([3]; 50 g ae/ha foliar): 48% | Ave % Injury 14DAT ([3]; 200 g ae/ha foliar): 75% | Ave % Injury 14DAT ([3]; 800 g ae/ha foliar): 88% | Ave % Injury 14DAT ([3]; 3200 g ae/ha foliar): 95% | Ave % Injury 14DAT ([4]; 50 g ae/ha foliar): 76% | Ave % Injury 14DAT ([4]; 200 g ae/ha foliar): 85% | Ave % Injury 14DAT ([4]; 800 g ae/ha foliar): 85% | Ave % Injury 14DAT ([4]; 3200 g ae/ha foliar): 95%

O=C(O)COc1ccc(Cl)cc1Cl [2,4-D, 2,4-dichlorophenoxyacetic acid]
injury of T1 AAD1 (v3) tobacco [5]: No injury was observed
